How the values were obtained:
Conditions in all cases: 72 h
HL-60 [1] = experiment: area under dose-response curve (viability, 1 nM-10 uM) (fraction (0-1)); higher = more sensitive
Procedure, shortened: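 For each screen, HL-60 cells in RPMI 1640 with 10% FBS carried either DMSO or 100 nM of one of three metabolic inhibitors while the full library was applied at five tenfold concentrations, 1–10,000 nM, in duplicate. Plates were 384-well and were kept 72 h at 37 °C, 5% CO2. Viability, measured by CellTiter-Glo, was normalised to wells with DMSO and with 10 μM proteasome inhibitor. Where area under the curve appears, it was fitted by four-parameter log-logistic models in drc and PharmacoGx.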

MOLM-13 [2] = system: MOLM-13
Procedure, shortened: (§1)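 Each of fifteen myeloid leukaemia cell lines was seeded in RPMI 1640 at a density titrated to its linear growth range. The cells were incubated for 72 h at 37 °C and 5% CO2 with compounds at five tenfold doses from 1 to 10,000 nM, in duplicate. After ATP luminescence was normalised to vehicle and to a positive control at 10 µM, four-parameter log-logistic curves were fitted. These curves gave the IC50.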

HL-60 [3] = system: HL-60
Procedure, shortened: as §1

MV4-11 [4] = system: MV4-11
Procedure, shortened: as §1

Mono-Mac-6 [5] = system: Mono-Mac-6
Procedure, shortened: as §1

KU-812 [6] = system: KU-812
Procedure, shortened: as §1

KCL-22 [7] = system: KCL-22
Procedure, shortened: as §1

BV-173 [8] = system: BV-173
Procedure, shortened: as §1

KG-1 [9] = system: KG-1
Procedure, shortened: as §1

ML-2 [10] = system: ML-2
Procedure, shortened: as §1

THP-1 [11] = system: THP-1
Procedure, shortened: as §1

NOMO-1 [12] = system: NOMO-1
Procedure, shortened: as §1

HEL [13] = system: HEL
Procedure, shortened: as §1

K-562 = system: K-562
Procedure, shortened: as §1

SHI-1 [14] = system: SHI-1
Procedure, shortened: as §1

LAMA-84 [15] = system: LAMA-84
Procedure, shortened: as §1

MOLM-13 [16] = experiment: cell viability (% survival relative to DMSO control, bortezomib = 0%); higher = less cytotoxic
Procedure, shortened: (§2)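 Percent survival figures are means of duplicate wells. They were obtained by CellTiter-Glo luminescence after 10 AML and 5 CML cell lines spent 72 h at 37 °C with 5% CO2 in 384-well plates with compounds at 1, 10, 100, 1000 or 10000 nM. Vehicle was set to 100% and a 10 µM positive control to 0%.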

HL-60 [17] = experiment: as above
Procedure, shortened: as §2

MV4-11 [18] = experiment: as above
Procedure, shortened: as §2

Mono-Mac-6 [19] = experiment: as above
Procedure, shortened: as §2

KU-812 [20] = experiment: as above
Procedure, shortened: as §2

KCL-22 [21] = experiment: as above
Procedure, shortened: as §2

BV-173 [22] = experiment: as above
Procedure, shortened: as §2

KG-1 [23] = experiment: as above
Procedure, shortened: as §2

ML-2 [24] = experiment: as above
Procedure, shortened: as §2

THP-1 [25] = experiment: as above
Procedure, shortened: as §2

NOMO-1 [26] = experiment: as above
Procedure, shortened: as §2

HEL [27] = experiment: as above
Procedure, shortened: as §2

SHI-1 [28] = experiment: as above
Procedure, shortened: as §2

LAMA-84 [29] = experiment: as above
Procedure, shortened: as §2

CCCCCCCCCCC[C@@H](C[C@@H]1OC(=O)[C@H]1CCCCCC)OC(=O)[C@H](CC(C)C)NC=O [Orlistat]
Conditions	area under dose-response curve, co-treatment: AZD3965 100 nM	area under dose-response curve, co-treatment: DMSO vehicle	area under dose-response curve, co-treatment: GSK2194069 100 nM	area under dose-response curve, co-treatment: pictilisib 100 nM	cell viability, 1 nM [%]	cell viability, 10 nM [%]	cell viability, 100 nM [%]	cell viability, 1000 nM [%]	cell viability, 10000 nM [%]
BV-173 [22]	–	–	–	–	86.3	92	79.9	87.5	82
HEL [27]	–	–	–	–	102	107	95.3	101	90.8
HL-60 [1]	< 0.0301	< 0.0301	0.0449	< 0.0301	–	–	–	–	–
HL-60 [17]	–	–	–	–	122	105	108	106	98.7
KCL-22 [21]	–	–	–	–	105	87.9	90.2	97	86.9
KG-1 [23]	–	–	–	–	96.2	99.6	96.4	100	53.3
KU-812 [20]	–	–	–	–	98.3	92.1	96.4	98.5	89.6
LAMA-84 [29]	–	–	–	–	101	103	93.9	93.7	94.4
ML-2 [24]	–	–	–	–	93.6	101	93.6	88.6	86
MOLM-13 [16]	–	–	–	–	140	104	87.9	65.3	95.2
MV4-11 [18]	–	–	–	–	107	97.2	71.6	109	79.8
Mono-Mac-6 [19]	–	–	–	–	114	91.1	97.7	103	87.7
NOMO-1 [26]	–	–	–	–	101	95	96.6	106	96.5
SHI-1 [28]	–	–	–	–	101	102	106	108	102
THP-1 [25]	–	–	–	–	97.5	99	85.2	95	94.6

Conditions	IC50 (cell viability) [µM]
BV-173 [8]	> 10
HEL [13]	> 10
HL-60 [3]	> 10
K-562	> 10
KCL-22 [7]	> 10
KG-1 [9]	> 10
KU-812 [6]	> 10
LAMA-84 [15]	> 10
ML-2 [10]	> 10
MOLM-13 [2]	> 10
MV4-11 [4]	> 10
Mono-Mac-6 [5]	> 10
NOMO-1 [12]	> 10
SHI-1 [14]	> 10
THP-1 [11]	> 10

CCOP(=O)(OCC)C(=Cc1cc(C(C)(C)C)c(O)c(C(C)(C)C)c1)P(=O)(OCC)OCC
Conditions	area under dose-response curve, co-treatment: AZD3965 100 nM	area under dose-response curve, co-treatment: DMSO vehicle	area under dose-response curve, co-treatment: GSK2194069 100 nM	area under dose-response curve, co-treatment: pictilisib 100 nM	cell viability, 1 nM [%]	cell viability, 10 nM [%]	cell viability, 100 nM [%]	cell viability, 1000 nM [%]	cell viability, 10000 nM [%]
BV-173 [22]	–	–	–	–	92.7	96.8	121	89.9	64.5
HEL [27]	–	–	–	–	92.1	95.8	109	89.8	108
HL-60 [1]	< 0.0301	< 0.0301	< 0.0301	< 0.0301	–	–	–	–	–
HL-60 [17]	–	–	–	–	93.9	94.9	159	65.9	83.4
KCL-22 [21]	–	–	–	–	98.7	108	125	108	94
KG-1 [23]	–	–	–	–	96.3	91.2	121	91.2	67
KU-812 [20]	–	–	–	–	98.4	92.3	123	85.5	73.6
LAMA-84 [29]	–	–	–	–	94.8	99.1	114	97.6	94.1
ML-2 [24]	–	–	–	–	95.1	98.1	134	78.9	80
MOLM-13 [16]	–	–	–	–	76	81.8	122	88.9	86.5
MV4-11 [18]	–	–	–	–	94.2	90.7	117	104	82
Mono-Mac-6 [19]	–	–	–	–	93.3	99.4	129	75.2	57.6
NOMO-1 [26]	–	–	–	–	97	99.1	118	91.4	93.4
SHI-1 [28]	–	–	–	–	100	89.7	123	94.9	98.5
THP-1 [25]	–	–	–	–	96.7	98.1	115	83.9	85.1

Conditions	IC50 (cell viability) [µM]
BV-173 [8]	> 10
HEL [13]	> 10
HL-60 [3]	> 10
K-562	> 10
KCL-22 [7]	> 10
KG-1 [9]	> 10
KU-812 [6]	> 10
LAMA-84 [15]	> 10
ML-2 [10]	> 10
MOLM-13 [2]	> 10
MV4-11 [4]	> 10
Mono-Mac-6 [5]	6.9
NOMO-1 [12]	> 10
SHI-1 [14]	> 10
THP-1 [11]	> 10

Nc1ccccc1C(=O)C[C@H](N)C(=O)O [L-Kynurenine]
Conditions	area under dose-response curve, co-treatment: AZD3965 100 nM	area under dose-response curve, co-treatment: DMSO vehicle	area under dose-response curve, co-treatment: GSK2194069 100 nM	area under dose-response curve, co-treatment: pictilisib 100 nM	cell viability, 1 nM [%]	cell viability, 10 nM [%]	cell viability, 100 nM [%]	cell viability, 1000 nM [%]	cell viability, 10000 nM [%]
BV-173 [22]	–	–	–	–	108	90.1	101	107	102
HEL [27]	–	–	–	–	117	80.1	102	104	92.7
HL-60 [1]	< 0.0301	< 0.0301	< 0.0301	< 0.0301	–	–	–	–	–
HL-60 [17]	–	–	–	–	122	100	111	105	109
KCL-22 [21]	–	–	–	–	104	–	96.6	103	97.3
KG-1 [23]	–	–	–	–	103	89.4	92.8	102	96.7
KU-812 [20]	–	–	–	–	98.8	90.5	99.5	106	99.2
LAMA-84 [29]	–	–	–	–	105	105	100	107	107
ML-2 [24]	–	–	–	–	107	103	103	100	98.7
MOLM-13 [16]	–	–	–	–	86.5	93.2	100	97.7	66.1
MV4-11 [18]	–	–	–	–	108	103	93.1	101	89.4
Mono-Mac-6 [19]	–	–	–	–	101	91.7	102	93.8	95.9
NOMO-1 [26]	–	–	–	–	102	96.3	99	117	101
SHI-1 [28]	–	–	–	–	120	102	90.6	104	98.4
THP-1 [25]	–	–	–	–	97	93.1	101	102	102

Conditions	IC50 (cell viability) [µM]
BV-173 [8]	> 10
HEL [13]	> 10
HL-60 [3]	> 10
K-562	> 10
KCL-22 [7]	> 10
KG-1 [9]	> 10
KU-812 [6]	> 10
LAMA-84 [15]	> 10
ML-2 [10]	> 10
MOLM-13 [2]	> 10
MV4-11 [4]	> 10
Mono-Mac-6 [5]	> 10
NOMO-1 [12]	> 10
SHI-1 [14]	> 10
THP-1 [11]	> 10
